According to ChEMBL document CHEMBL4418262, “Heterocyclic compounds for the inhibition of pask” (2016):

These compounds were tested against PAS domain-containing serine/threonine-protein kinase (Homo sapiens, UniProt Q96RG2) (assay: Inhibition of GST-tagged human recombinant PASK expressed in Baculovirus based system using Ulight-peptide substrate incubated for 2 hrs by TR-FRET assay).
Chain of PAS domain-containing serine/threonine-protein kinase (Q96RG2 whole entry, the tested form may be a part): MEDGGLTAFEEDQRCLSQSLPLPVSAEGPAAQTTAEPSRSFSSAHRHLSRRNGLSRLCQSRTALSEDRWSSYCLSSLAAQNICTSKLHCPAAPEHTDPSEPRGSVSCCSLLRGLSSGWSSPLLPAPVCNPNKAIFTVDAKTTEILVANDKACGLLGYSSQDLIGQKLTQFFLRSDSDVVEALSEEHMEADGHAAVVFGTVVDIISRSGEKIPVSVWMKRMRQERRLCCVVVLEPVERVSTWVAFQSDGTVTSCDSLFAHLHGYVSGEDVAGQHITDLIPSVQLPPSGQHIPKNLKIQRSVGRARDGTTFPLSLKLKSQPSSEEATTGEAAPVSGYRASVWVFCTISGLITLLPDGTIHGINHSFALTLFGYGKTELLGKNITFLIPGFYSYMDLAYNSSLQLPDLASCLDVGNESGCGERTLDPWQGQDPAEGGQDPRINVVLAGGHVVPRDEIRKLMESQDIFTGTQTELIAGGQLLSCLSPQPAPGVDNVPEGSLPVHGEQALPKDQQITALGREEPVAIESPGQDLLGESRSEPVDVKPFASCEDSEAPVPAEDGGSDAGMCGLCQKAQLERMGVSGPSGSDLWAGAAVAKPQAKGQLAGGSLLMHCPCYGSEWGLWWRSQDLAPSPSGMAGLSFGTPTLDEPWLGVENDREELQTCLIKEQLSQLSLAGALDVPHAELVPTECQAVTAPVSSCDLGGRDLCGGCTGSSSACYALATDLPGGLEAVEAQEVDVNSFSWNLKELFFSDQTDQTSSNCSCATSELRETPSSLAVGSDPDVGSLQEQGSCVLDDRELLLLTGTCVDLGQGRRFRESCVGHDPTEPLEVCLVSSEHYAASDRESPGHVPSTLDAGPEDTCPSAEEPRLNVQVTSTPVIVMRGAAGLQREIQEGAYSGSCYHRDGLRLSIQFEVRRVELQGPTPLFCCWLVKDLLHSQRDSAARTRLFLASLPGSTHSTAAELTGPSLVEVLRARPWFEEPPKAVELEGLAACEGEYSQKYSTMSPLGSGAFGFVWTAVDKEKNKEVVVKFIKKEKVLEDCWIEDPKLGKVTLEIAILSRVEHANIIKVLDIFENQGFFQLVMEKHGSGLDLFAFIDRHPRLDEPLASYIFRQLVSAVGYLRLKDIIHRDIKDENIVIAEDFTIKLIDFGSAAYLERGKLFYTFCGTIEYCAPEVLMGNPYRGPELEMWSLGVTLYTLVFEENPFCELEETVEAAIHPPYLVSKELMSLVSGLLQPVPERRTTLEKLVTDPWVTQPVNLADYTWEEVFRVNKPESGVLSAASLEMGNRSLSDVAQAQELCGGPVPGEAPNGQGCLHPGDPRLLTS

Row | IC50 | SMILES
1 | ≤ 10 µM | CN(c1nc2cc(C(=O)O)ccc2nc1-c1ccc(F)cc1)C1CCC(O)CC1 (centres undefined)
2 | ≤ 10 µM | C[C@H]1CCCN1c1nc2cc(C(=O)O)ccc2nc1-c1coc2ccc(C(F)(F)F)cc12
3 | ≤ 10 µM | CC(C)N(C)c1nc2cc(C(=O)O)ccc2nc1-c1coc2ccc(C(F)(F)F)cc12
4 | ≤ 10 µM | C[C@H]1CCCCN1c1nc2cc(C(=O)O)ccc2nc1-c1cc2cc(F)ccc2o1
